Test results: patent publication US12448382B2, “Heterocyclic compounds for mediating tyrosine kinase 2 activity” (GUANGZHOU INNOCARE PHARMA TECH CO., LTD., priority 2019, dated 2025)
Blank lines part the entries; values can stand above or below the molecule they belong to.

Key:
[1] = biological target: T1, human recombinant JAK2 protein (Homo sapiens, UniProt O60674); assay: JAK2 Inhibition Assay (HTRF kinase assay); assay type: biochemical; conditions: human recombinant JAK2, 2.5 μM ATP substrate solution
T1 construct: purchased Carna Biosciences 08-045
Description: The effect of the compounds of the present invention on the enzymatic activity of JAK2 was assessed by detecting the substrate phosphorylation level in a kinase reaction using the HTRF kinase assay detection kit (Cisbio, Cat. No. 62TK0PEC).
(§1) The experimental method is generally described below:
A reaction buffer contained the following components: an enzyme reaction buffer (1×), 5 mM MgCl2, 1 mM DTT and 0.01% Brij35 from the kit. A JAK2 kinase solution contained a human recombinant JAK2 protein (Carna Biosciences, 08-045) diluted in the reaction buffer to 0.15 ng/μL. A substrate reaction solution contained 2.5 μM ATP and 0.25 μM of a biotinylated tyrosine kinase substrate from the kit in the reaction buffer. A detection solution contained 0.1 ng/μL Eu^3+-labeled cage antibody (Cisbio, 61T66KLB) and 12.5 nM streptavidin-labeled XL665 (Cisbio, 610SAXLB) in the reaction buffer.
(§2) The test compound was dissolved in DMSO to 10 μM, followed by a serial 4-fold dilution with DMSO to a minimum concentration of 0.061 nM. Each concentration was further diluted 40-fold with the reaction buffer.
To a 384-well assay plate (Corning, 3674) were added 4 μL of compound solution and 2 μL of JAK2 kinase solution. The mixture was mixed and incubated at room temperature for 15 minutes, and then added with 4 μL of the substrate reaction solution. After further incubation at room temperature for 30 minutes, the reaction mixture was added with an equal volume of 10 μL detection solution and allowed to stand at room temperature for 30 minutes. An Envision plate reader (Perkin Elmer) was then used to measure the progress of the reaction at 620 nm and 665 nm. The ratio of absorbances at 665 nm and 620 nm was positively correlated with the degree of substrate phosphorylation, therefore the activity of JAK2 kinase was detected. In the experiment, the group without JAK2 kinase protein was treated as the 100% inhibition group, and the group with JAK2 kinase protein but not the test compound was treated as the 0% inhibition group. The percentage of inhibition on JAK2 kinase activity by the test compound was calculated using the following formula: Percentage of inhibition=100−100*(ratiocompound−ratio100% inhibition)/(ratio0% inhibition−ratio100% inhibition)
The IC50 value of the test compound was calculated from 8 concentration points using the XLfit softwere (ID Business Solutions Ltd., UK) by the following formula: Y=Bottom+(Top−Bottom)/(1+10^((log IC50−X)×slope factor))
Where Y was the percentage of inhibition, X was the logarithm of the concentration of the test compound. Bottom was the bottom plateau value of the S-shaped curve, Top was the top plateau value of the S-shaped curve, and slope factor was the slope coefficient of the curve.

[2] = biological target: T2, human recombinant TYK2 protein (Homo sapiens, UniProt P29597); assay: TYK2 Inhibition Assay (HTRF kinase assay); assay type: biochemical; conditions: human recombinant TYK2, 11.25 μM ATP substrate solution
T2 construct: purchased Carna Biosciences 08-147
T2 sequence (P29597 871-1187 limits assumed): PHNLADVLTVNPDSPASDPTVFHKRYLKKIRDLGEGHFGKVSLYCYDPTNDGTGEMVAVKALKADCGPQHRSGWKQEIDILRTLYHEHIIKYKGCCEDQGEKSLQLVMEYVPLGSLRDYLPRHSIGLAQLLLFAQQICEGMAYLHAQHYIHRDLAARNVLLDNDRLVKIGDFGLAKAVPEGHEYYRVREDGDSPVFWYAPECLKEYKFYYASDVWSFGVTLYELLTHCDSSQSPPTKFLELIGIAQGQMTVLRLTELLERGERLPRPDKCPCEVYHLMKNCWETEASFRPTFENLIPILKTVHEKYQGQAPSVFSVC
Description: The effect of the compounds of the present invention on the enzymatic activity of TYK2 was assessed by detecting the substrate phosphorylation level in a kinase reaction using the HTRF kinase assay detection kit (Cisbio, Cat. No. 62TK0PEC).
as §1
A reaction buffer contained the following components: an enzyme reaction buffer (1×), 5 mM MgCl2 mM DTT and 0.01% Brij35 from the kit. A TYK2 kinase solution contained human recombinant TYK2 protein (Carna Biosciences, 08-147) diluted in the reaction buffer to 0.25 ng/μL. A substrate reaction solution contained 11.25 μM ATP and 0.5 μM of a biotinylated tyrosine kinase substrate from the kit in the reaction buffer. A detection solution contained 0.1 ng/μL Eu^3+-labeled cage antibody (Cisbio, 61T66KLB) and 25 nM streptavidin-1 added XL665 (Cisbio, 610SAXLB) in the reaction buffer.
as §2
To a 384-well assay plate (Corning, 3674) were added 4 μL of compound solution and 2 μL of TYK2 kinase solution. The mixture was mixed and incubated at room temperature for 15 minutes, and then added with 4 μL of the substrate reaction solution. After further incubation at room temperature for 40 minutes, the reaction mixture was added with an equal volume of 10 μL detection solution and allowed to stand at room temperature for 30 minutes. An Envision plate reader (Perkin Elmer) was then used to measure the progress of the reaction at 620 nm and 665 nm. The ratio of absorbances at 665 nm and 620 nm was positively correlated with the degree of substrate phosphorylation, therefore the activity of TYK2 kinase was detected. In the experiment, the group without TYK2 kinase protein was treated as the 100% inhibition group, and the group with TYK2 kinase protein but not the test compound was treated as the 0% inhibition group. The percentage of inhibition on TYK2 kinase activity by the test, compound was calculated using the following formula: Percentage of inhibition=100−100*(ratiocompound−ratio100% inhibition)/(ratio0% inhibition−ratio100% inhibition)
The IC50 value of the test compound was calculated from 8 concentration points using the XLfit software (ID Business Solutions Ltd., UK) by the following formula: Y=Bottom+(Top−Bottom)/(1+10^((log IC50−X)slope factor))
(§3) Where Y was the percentage of inhibition, X was the logarithm of the concentration of the test compound, Bottom was the bottom plateau value of the S-shaped curve, Top was the top plateau value of the S-shaped curve, and slope factor was the slope coefficient of the curve.

[3] = test system: IL-12-induced IFN-γ secretion in NK92 cells; assay: Inhibition of IL-12-induced IFN-γ Secretion in NK92 Cells (ELISA); assay type: cell-based, human; conditions: Homo sapiens, 24 hours incubation, 8 concentration points, read-out: IC50 (NK92_IL12/IFNγ)
Description: Inhibition of IL-12-induced IFN-γ Secretion in NK92 Cells
The effect of the compounds of the present invention on IFN-γ secretion induced by IL-12 in NK92 cells was evaluated by an enzyme-linked immunosorbent assay (ELISA).
IL-12 receptor is mainly expressed in activated T-cells, NK cells (NK92 is a NK cell line), DC cells, and B-cells. When binding to IL-12, it activates JAK2/TYK2 signal transduction pathway within NK cells and T lymphocytes, thereby inducing secretion of IFN-γ.
as §1
The test compound was dissolved in DMSO to 2.5 mM, followed by a serial 4-fold dilution with DMSO to a minimum concentration of […]. Each concentration was further diluted 50-fold with an FBS-free MEMα medium (Gibco, 12561-056).
NK92 cells (Nanjing Cobioer, CBP60980) were cultured in a complete MEMα medium containing 12.5% FBS (Ausbian, VS500T), 12.5% horse serum (Gibco, 16050-122), 0.02 mM folic acid (Sigma, F8758), 0.2 mM inositol (Sigma, 17850), 0.55 mM β-mercaptoethanol (Gibco, 21985-023), 200 U/mL IL-2 (R&D Systems, 202-1L), and 100 U/mL penicillin (Thermofisher, 15140122). When covering 80-90% of the culture container surface, the cells were dispersed and plated on a 96-well plate (Thermofisher, 167425) with 100,000 cells per well (80 μL of the complete MEMα medium without IL-2). The 96-well plate was then incubated overnight in a 37° C./5% CO2 incubator.
After overnight incubation, 10 μL of the test compound and 10 μL of 50 ng/mL IL-12 (R & D Systems, 219-1L) were added to each well and mix gently, and the 96-well plate was incubated in the 37° C./5% CO2 incubator for additional 24 hours. The plate as centrifuged at 800 rpm for 10 minutes at room temperature and 50 μL of the supernatant from each well was transferred to another 96-well plate (Sigma, CLS3695) coated with anti-IFN-γ antibody. The amount of IFN-γ secretion was detected following the instruction from the Human IFN-γ DuoSet ELISA kit (R & D Systems, DY285B). In the experiment, the group with IL-12 and the test compound being replaced with the MEMα medium was the non-stimulated control group (100% inhibition), and the group with IL-12 and 0.2% DMSO was the stimulated group (0% inhibition). The percentage of inhibition on IL-12 induced IFN-γ secretion in NK-92 cells by the test compound was calculated using the following formula: Percentage of inhibition=100−100*(signalcompound−signalnon-stimulated control)/(signalstimulated control−signalnon-stimulated control)
The IC50 value of the test compound was calculated front 8 concentration points using the XLfit software (ID Business Solutions Ltd., UK) by the following formula: Y=Bottom+(Top−Bottom)/(1+10^((log IC50−X)×slope factor))
as §3

T1 sequence (O60674 826-1132 limits assumed): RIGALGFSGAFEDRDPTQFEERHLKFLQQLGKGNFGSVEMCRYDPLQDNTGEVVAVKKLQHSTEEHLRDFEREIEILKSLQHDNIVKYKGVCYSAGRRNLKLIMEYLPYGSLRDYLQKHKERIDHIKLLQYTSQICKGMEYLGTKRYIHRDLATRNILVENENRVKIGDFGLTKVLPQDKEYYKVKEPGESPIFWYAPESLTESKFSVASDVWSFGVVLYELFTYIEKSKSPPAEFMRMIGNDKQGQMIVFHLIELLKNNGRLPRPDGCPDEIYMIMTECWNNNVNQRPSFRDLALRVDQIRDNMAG

Structure (SMILES): Cc1cnc(Nc2cnn(C)c2)nc1N1C[C@@H]2CN(Cc3ccno3)C[C@]2(C)C1 (racemic) [Compound 73, cis-4-(5-(isoxazol-5-ylmethyl)-3a-methylhexahydropyrrolo[3,4-c]pyrrol-2(1H)-yl)-5-methyl-N-(1-methyl-1H-pyrazol-4-yl)pyrimidin-2-amine]
IC50 [1]: 6 nM
IC50 [2]: 3.3 nM
IC50 [3]: 278 nM

Structure (SMILES): Cn1cc(Nc2ncc(Cl)c(N3C[C@@H]4CN(Cc5ccno5)C[C@]4(C)C3)n2)cn1 (racemic) [Compound 74, cis-5-chloro-4-(5-(isoxazol-5-ylmethyl)-3a-methylhexahydropyrrolo[3,4-c]pyrrol-2(1H)-yl)-N-(1-methyl-1H-pyrazol-4-yl)pyrimidin-2-amine]
IC50 [1]: 2.4 nM
IC50 [2]: 1.6 nM
IC50 [3]: 209 nM

Structure (SMILES): Cn1cc(Nc2ncc(Cl)c(N3C[C@@]4(C)CN(CC#N)C(=O)[C@@]4(C)C3)n2)cn1 (racemic) [Compound 92, cis-2-(5-(5-Chloro-2-((1-methyl-1H-pyrazol-4-yl)amino)pyrimidin-4-yl)-3a,6a-dimethyl-1-oxohexahydropyrrolo[3,4-c]pyrrol-2(1H)-yl)acetonitrile]
IC50 [1]: 4.1 nM
IC50 [2]: 1.1 nM
IC50 [3]: 398 nM

Structure (SMILES): Cn1cc(Nc2ncc(Cl)c(N3C[C@H]4CN(C(=O)CC#N)C[C@]4(C)C3)n2)cn1 (racemic) [Compound 100, trans-3-(5-(5-chloro-2((1-methyl-1H-pyrazol-4-yl)amino)pyrimidin-4-yl)-3a-methylhexahydropyrrolo[3,4-c]pyrrol-2(1H)-yl)-3-oxopropanenitrile]
IC50 [1]: 5 nM
IC50 [2]: 2.2 nM
IC50 [3]: 763 nM

Structure (SMILES): Cn1cc(Nc2nccc(N3C[C@@H]4CN(Cc5ccno5)C[C@]4(C)C3)n2)cn1 (relative stereo) [Compound 69, cis-4-(5-(isoxazol-5-ylmethyl)-3a-methylhexahydropyrrolo[3,4-c]pyrrol-2(1H)-yl)-N-(1-methyl-1H-pyrazol-4-yl)pyrimidin-2-amine]
IC50 [1]: 156 nM
IC50 [2]: 98 nM
IC50 [3]: 7060 nM

The remaining lines, values ahead:

IC50 [1]: 4.5 nM
IC50 [2]: 3.4 nM
IC50 [3]: 824 nM
Structure (SMILES): Cc1cnc(Nc2cnn(C)c2)nc1N1C[C@@H]2CN(C(=O)[C@@H]3CC3(F)F)C[C@]2(C)C1 (racemic) [Compound 72]

IC50 [1]: 15 nM
IC50 [2]: 2.4 nM
IC50 [3]: 3800 nM
Structure (SMILES): CCNC(=O)c1ccc(Nc2ncc(F)c(N3C[C@]4(C)CN(C(=O)C5CC5(F)F)C[C@]4(C)C3)n2)cc1 (stereo partly drawn) [Compound 10, 4-((4-((3aR,6aS)-5-(2,2-difluorocyclopropane-1-carbonyl)-3a,6a-dimethylhexahydropyrrolo[3,4-c]pyrrol-2(IH)-yl)-5-fluoropyrimidin-2-yl)amino)-N-ethylbenzamide]

IC50 [1]: 137 nM
IC50 [2]: 21 nM
IC50 [3]: 6770 nM
Structure (SMILES): Cn1cc(Nc2ncc(F)c(N3C[C@]4(C)CN(C(=O)C5CC5)C[C@]4(C)C3)n2)cn1 [Compound 11]

IC50 [1]: 4.2 nM
IC50 [2]: 1.1 nM
IC50 [3]: 419 nM
Structure (SMILES): Cn1cc(Nc2ncc(Cl)c(N3C[C@]4(C)CN(C(=O)C5CC5)C[C@]4(C)C3)n2)cn1 [Compound 12, ((3aR,6aS)-5-(5-chloro-2-((1-methyl-1H-pyrazol-4-yl)amino)pyrimidin-4-yl)-3a,6a-dimethylhexahydropyrrolo[3,4-c]pyrrol-2(1H)-yl)(cyclopropyl)methanone]

IC50 [1]: 170 nM
IC50 [2]: 8.5 nM
IC50 [3]: 4140 nM
Structure (SMILES): C[C@@]12CN(C(=O)C3CC3)C[C@]1(C)CN(c1nc(Nc3cnn(CCO)c3)ncc1F)C2 [Compound 13]

IC50 [1]: 68 nM
IC50 [2]: 14 nM
IC50 [3]: 1320 nM
Structure (SMILES): Cn1cc(Nc2ncc(F)c(N3C[C@]4(C)CN(CC(F)F)C[C@]4(C)C3)n2)cn1 [Compound 14, 4-((3aR,6aS)-5-(2,2-difluoroethyl)-3a,6a-dimethylhexahydropyrrolo[3,4-c]pyrrol-2(1H)-yl)-5-fluoro-N-(1-methyl-1H-pyrazol-4-yl)pyrimidin-2-amine]
